Reference: patent publication US20200030414A1, “THERAPEUTIC AGENT FOR SHORT STATURE” (Daiichi Sankyo Company, Limited, priority 2017, published 2020)
Where a SMILES comes first, the peptide text is derived from it. Bridges are numbered along the chain shown (N, C = ends). Where no end group is shown, it is not given here.

What was measured:
[1] = Body length after 7-day repeated or continuous subcutaneous administration (Example 2); assay type: in vivo, rat; settings: for Body length (from mouth to end of tail): male SD rat
Procedure: A dosing solution of the CNP derivative (A) or (B) was repeatedly subcutaneously administered at doses of 0.005, 0.015, 0.05, 0.15 and 0.5 mg/kg/day once a day for 7 days to 7-week-old male Crl:CD (SD) rats, or charged in an osmotic pump (MINI-OSMOTIC PUMP Model 2002, manufactured by DURECT Corp., flow rate: 0.5 μL/hr, for 14-day use), implanted in the backs of rats, and continuously subcutaneously administered at these doses for 7 days. Their body lengths (from the mouth to the end of the tail) were measured before the start of administration and 8 days after the start of administration.

[2] = normal mice, continuous intravenous administration, increased bone length; cited from earlier work
[3] = Estimated concentration in plasma during repeated subcutaneous administration with two vehicles (Example 3); assay type: in vivo, rat
[4] = Blood pressure lowering effect, 24-hour continuous intravenous administration, telemetry (Example 4); assay type: in vivo, cynomolgus monkey; design: Systolic blood pressure fluctuation range (maximum value %): unit not given here; settings: for Systolic blood pressure fluctuation range (maximum value %): maximum value during administration period
Procedure: (§1) The CNP derivative (A) was continuously intravenously administered at doses of 0.015 to 0.1 mg/kg/day at a constant rate to telemetry transmitter-implanted cynomolgus monkeys (two males and two females), and studied for its influence on blood pressure (systolic, diastolic, and average blood pressures), heart rate, and an electrocardiographic parameter.

[5] = Concentration in plasma during 24-hour continuous intravenous administration (Example 4); assay type: in vivo, cynomolgus monkey; settings: 0.1 mg/kg/day continuous i.v. 24 h, immediately before completion of administration
Procedure: as §1
[Table 3: Systolic blood pressure fluctuation range (maximum value during administration period) when CNP derivative (A) was continuously intravenously administered at constant rate for 24 hours to cynomolgus monkey, and concentration of CNP derivative (A) in plasma immediately before completion of administration

NPR-B = settings: Furuya et al. 1992; cited from earlier work
Chain of NPR-B (P20594 23-1047, species assumed): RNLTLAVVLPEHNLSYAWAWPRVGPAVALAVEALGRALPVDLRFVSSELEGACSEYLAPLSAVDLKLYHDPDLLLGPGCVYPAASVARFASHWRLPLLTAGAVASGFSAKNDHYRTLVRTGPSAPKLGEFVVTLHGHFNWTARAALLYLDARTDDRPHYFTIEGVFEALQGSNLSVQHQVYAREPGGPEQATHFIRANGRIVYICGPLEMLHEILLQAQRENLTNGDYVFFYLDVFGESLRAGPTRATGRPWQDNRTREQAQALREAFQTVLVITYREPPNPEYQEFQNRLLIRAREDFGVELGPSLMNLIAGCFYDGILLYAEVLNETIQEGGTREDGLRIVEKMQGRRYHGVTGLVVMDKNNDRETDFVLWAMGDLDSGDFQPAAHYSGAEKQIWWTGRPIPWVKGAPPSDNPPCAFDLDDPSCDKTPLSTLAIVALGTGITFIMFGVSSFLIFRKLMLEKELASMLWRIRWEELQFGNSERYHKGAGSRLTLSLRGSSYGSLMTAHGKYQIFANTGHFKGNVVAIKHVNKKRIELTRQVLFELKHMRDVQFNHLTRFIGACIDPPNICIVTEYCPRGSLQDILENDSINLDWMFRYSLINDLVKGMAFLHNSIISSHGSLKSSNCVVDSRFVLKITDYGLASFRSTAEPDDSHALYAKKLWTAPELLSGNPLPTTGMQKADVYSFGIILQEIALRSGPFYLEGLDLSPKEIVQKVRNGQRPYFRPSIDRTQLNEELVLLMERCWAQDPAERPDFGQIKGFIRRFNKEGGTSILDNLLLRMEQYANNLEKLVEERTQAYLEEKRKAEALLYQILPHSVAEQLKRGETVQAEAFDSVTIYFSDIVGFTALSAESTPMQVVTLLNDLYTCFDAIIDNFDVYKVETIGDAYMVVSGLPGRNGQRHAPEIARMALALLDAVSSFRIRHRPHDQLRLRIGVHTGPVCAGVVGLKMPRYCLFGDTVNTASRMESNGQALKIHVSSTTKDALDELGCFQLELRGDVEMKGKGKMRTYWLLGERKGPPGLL

With “CNP derivative (B): derivative consisting of the amino acid sequence Pro-Gly-CNP-37 (SEQ ID NO: 4), from WO2009/067639, under clinical development for achondroplasia (PGQEHPNARKYKGANKKGLSKGCFGLKLDRIGSMSGLGC; CNP derivative D, which disclosed in Am. J. Hum. Gent.(2012), 91(6), 1108-1114)” the “bone growth effect per dose, continuous vs repeated subcutaneous administration” value ([1]; 7 days) was “stronger under continuous subcutaneous administration conditions”, the “Body length (from mouth to end of tail)” value ([1]; continuous subcutaneous, 0.005 mg/kg/day, 7 days) was 215.2 ± 3.5 ^NS mm and the “Body length (from mouth to end of tail)” value ([1]; continuous subcutaneous, 0.015 mg/kg/day, 7 days) was 213.6 ± 4.4 ^NS mm. The “Body length (from mouth to end of tail)” value ([1]; continuous subcutaneous, 0.05 mg/kg/day, 7 days) was 212.2 ± 5.2 ^NS mm, the “Body length (from mouth to end of tail)” value ([1]; continuous subcutaneous, 0.15 mg/kg/day, 7 days) was 220.2 ± 4.3 mm and the “Body length (from mouth to end of tail)” value ([1]; continuous subcutaneous, 0.5 mg/kg/day, 7 days) was 222.8 ± 3.5 mm. For the same compound, the “increase in body length (from the mouth to the end of the tail)” value ([1]; continuous subcutaneous, 7-day, doses of 0.15 mg/kg/day or higher) was “significant increase”, the “effect on body length” value ([1]; repeated subcutaneous administration conditions, 7 days) was “no significant effect” and the “Body length (from mouth to end of tail)” value ([1]; repeated subcutaneous, 0.005 mg/kg/day, 7 days) was 211.8 ± 2.9 ^NS mm. For the same compound, the “Body length (from mouth to end of tail)” value ([1]; repeated subcutaneous, 0.015 mg/kg/day, 7 days) was 213.2 ± 4.4 ^NS mm, the “Body length (from mouth to end of tail)” value ([1]; repeated subcutaneous, 0.05 mg/kg/day, 7 days) was 214.4 ± 4.7 ^NS mm and the “Body length (from mouth to end of tail)” value ([1]; repeated subcutaneous, 0.15 mg/kg/day, 7 days) was 211.3 ± 4.5 ^NS mm. The “Body length (from mouth to end of tail)” value ([1]; repeated subcutaneous, 0.5 mg/kg/day, 7 days) was 215.2 ± 3.3 ^NS mm.

For CNP-22, the “effective concentration in plasma” value [2] is given as 29.3 ng/mL.

In the case of CC[C@H](C)[C@@H]1NC(=O)[C@H](CCCNC(=N)N)NC(=O)[C@H](CC(=O)O)NC(=O)[C@H](CC(C)C)NC(=O)[C@H](CCCCN)NC(=O)[C@H](CC(C)C)NC(=O)CNC(=O)[C@H](Cc2ccccc2)NC(=O)[C@@H](NC(=O)CNC(=O)[C@H](CCCCN)NC(=O)[C@H](CO)NC(=O)[C@H](CC(C)C)NC(=O)CN)CSSC[C@@H](C(=O)N[C@H](C(=O)N[C@@H](CCC(N)=O)C(=O)N[C@@H](CCC(N)=O)C(=O)N[C@@H](CCCNC(=N)N)C(=O)N[C@@H](CCCCN)C(=O)N[C@@H](CC(=O)O)C(=O)N[C@@H](CO)C(=O)N[C@@H](CCCCN)C(=O)N[C@@H](CCCCN)C(=O)N2CCC[C@H]2C(=O)N2CCC[C@H]2C(=O)N[C@@H](C)C(=O)N[C@@H](CCCCN)C(=O)N[C@@H](CC(C)C)C(=O)N[C@@H](CCC(N)=O)C(=O)N2CCC[C@H]2C(=O)N[C@@H](CCCNC(=N)N)C(=O)O)C(C)C)NC(=O)CNC(=O)[C@H](CC(C)C)NC(=O)CNC(=O)[C@H](CO)NC(=O)[C@H](CCSC)NC(=O)[C@H](CO)NC(=O)CNC1=O [CNP derivative (A)] (H-GLSKGCFGLKLDRIGSMSGLGCVQQRKDSKKPPAKLQPR-OH; disulfide 6-22; N-terminus and C-terminus assumed), the “estimated concentration in plasma” value ([3]; vehicle 1, 0.5 mg/kg s.c., 9 hours after administration) was ≤ 0.1 ng/mL, the “estimated concentration in plasma” value ([3]; vehicle 1, 0.5 mg/kg s.c., immediately after administration) was ≥ 200 ng/mL and the “peak concentration in plasma (estimated)” value ([3]; vehicle 2, 0.25 mg/kg s.c.) was “about 40 ng/mL”. The “estimated concentration in plasma” value ([3]; vehicle 2, 0.25 mg/kg s.c., 12 hours after administration) was ≥ 0.1 ng/mL, the “Systolic blood pressure fluctuation range (maximum value %)” value ([4]; 0.015 mg/kg/day continuous i.v. 24 h) was −6.8 and the “systolic blood pressure decrease” value ([4]; 0.05 mg/kg continuous i.v.) was −11.0 mmHg. The “Systolic blood pressure fluctuation range (maximum value %)” value ([4]; 0.05 mg/kg/day continuous i.v. 24 h) was −11.0, the “systolic blood pressure decrease” value ([4]; 0.1 mg/kg continuous i.v.) was −20.5 mmHg and the “Systolic blood pressure fluctuation range (maximum value %)” value ([4]; 0.1 mg/kg/day continuous i.v. 24 h) was −20.5. For the same compound, the reflex tachycardia ([4]; concentration in plasma up to 9.8 ng/mL at its maximum) was “no symptom indicating reflex tachycardia was observed”, the “concentration in plasma up to which reflex tachycardia is less likely to occur” value ([4]; elevated by continuous change) was “about 10 ng/mL” and the “blood pressure lowering effect (systolic and average blood pressures), average of differences from pre-administration values” ([4]; observed from 0.05 mg/kg) was “exceeding 10 mmHg”. For the same compound, the “concentration in plasma at which the risk of developing decreased blood pressure is drastically reduced” value ([4]; waking cynomolgus monkeys) was ≤ 4 ng/mL and the Concentration in plasma [5] was 9.8 ng/mL.

In the case of “CNP6-22: peptide consisting of the ring structure, amino acid positions 6 to 22 of SEQ ID NO: 1 (CFGLKLDRIGSMSGLGC; disulfide 1-17 (inferred); listed as Homo sapiens)”, the “NPR-B agonistic activity compared with hCNP-22” value (NPR-B) is given as “almost equivalent to that of hCNP-22”.
